Patent publication US12622891B2, “AMP-activated protein kinase activator” (KYOTO PHARMACEUTICAL UNIVERSITY, priority 2021, dated 2026)

Key:
phosphorylated AMPK [1] = test: Phosphorylated AMPK increasing action on human colon cancer SW48 cells (Western blot, phospho-AMPKα Thr172); format: cell-based; settings: 100 nM, 2 days; FIG. 6
Method: Human colon cancer SW48 cells were cultured in a 5% CO2 incubator at 37° C. using DMEM (FUJIFILM Wako Pure Chemical Corporation, Japan) supplemented with 10% bovine fetal serum (FBS, HyClone, GE Healthcare Life Sciences, Buckinghamshire, England) and 1% penicillin/streptomycin (FUJIFILM Wako Pure Chemical Corporation, respectively 100 units/mL, 100 μg/mL). SW48 cells were suspended in trypsin (Lonza, Walkersville, MD, USA), and 1×10^5 cells were seeded in a 6-well dish (TPP, Trasadingen, Switzerland). After 24 hr, the cells were treated with the compounds of the present invention (compound (I-4), compound (I-5), and compound (I-10)) diluted with a culture medium to a final concentration of 100 nM and allowed to act for 2 days. Cellular proteins were dissolved in 1% SDS buffer supplemented with a protease inhibitor cocktail mix (Nacalai Tesque, Kyoto, Japan), and SDS-PAGE was performed. After transferring to PVDF membrane (Millipore, Billerica, MA, USA), Western blot analysis was performed using anti-phospho-AMPKα (Thr172, 1:1000, #2535; CST) antibody. GAPDH protein was analyzed as a loading control.

[2] = system: human colon cancer SW48 cells; test: Proliferation suppressive action on human colon cancer SW48 cells (Trypan blue viable cell count); format: cell-based; settings: 500 nM, 3 days; FIG. 4
Method: Human colon cancer SW48 cells were cultured in a 5% CO2 incubator at 37° C. using DMEM (FUJIFILM Wako Pure Chemical Corporation, Japan) supplemented with 10% bovine fetal serum (FBS, HyClone, GE Healthcare Life Sciences, Buckinghamshire, England) and 1% penicillin/streptomycin (FUJIFILM Wako Pure Chemical Corporation, respectively 100 units/mL, 100 μg/mL). SW48 cells were suspended in trypsin (Lonza, Walkersville, MD, USA), and 1×10^5 cells were seeded in a 6-well dish (TPP, Trasadingen, Switzerland). After 24 hr, a group of the compounds of the present invention (compound (I-4), compound (I-5), and compound (I-10)) diluted with a culture medium to a final concentration of 500 nM was allowed to act for 3 days. Proliferation of these cells was evaluated using Trypan blue (FUJIFILM Wako Pure Chemical Corporation, Japan) staining method and counting the number of viable cells using a Countess II automatic cell counter (Thermo Fisher Scientific, Waltham, MA).

[3] = system: AMP/ATP ratio of human colon cancer SW48 cells; test: AMP/ATP ratio increasing action on human colon cancer SW48 cells (AMP Glo / Cell Titer Glo); format: cell-based; settings: 500 nM and 1 μM, 2 days; FIG. 5
Method: Human colon cancer SW48 cells were cultured in a 5% CO2 incubator at 37° C. using DMEM (FUJIFILM Wako Pure Chemical Corporation, Japan) supplemented with 10% bovine fetal serum (FBS, HyClone, GE Healthcare Life Sciences, Buckinghamshire, England) and 1% penicillin/streptomycin (FUJIFILM Wako Pure Chemical Corporation, respectively 100 units/mL, 100 μg/mL). SW48 cells were suspended in trypsin (Lonza, Walkersville, MD, USA), and 1×10^5 cells were seeded in a 6-well dish (TPP, Trasadingen, Switzerland). After 24 hr, the cells were treated with the compound of the present invention (compound (I-5)) diluted with a culture medium to final concentrations of 500 nM and 1 μM and allowed to act for 2 days. Intracellular AMP was measured with the AMP Glo assay kit (Promega, Madison, WI, USA), and intracellular ATP was measured with the Cell Titer Glo Luminescent Cell Viability Assay Kit (Promega, Madison, WI, USA) using a SYNERGY HT (BioTek Instruments, Inc. Winooski, VT, USA), and the AMP/ATP ratio was calculated.

[4] = Body weight change on daily intraperitoneal administration in the SW48 transplantation model; format: in vivo, mouse; settings: CB17 SCID mice, 20 mg/kg daily intraperitoneally for 3.5 weeks; FIG. 7(C)
Method: (§1) According to the method described in a literature (Ii H, et al. ChemMedChem. (2018) 13(2):155-163), human colon cancer SW48 cells were cultured in a 5% CO2 incubator at 37° C. using DMEM (FUJIFILM Wako Pure Chemical Corporation, Japan) supplemented with 10% bovine fetal serum (FBS, HyClone, GE Healthcare Life Sciences, Buckinghamshire, England) and 1% penicillin/streptomycin (FUJIFILM Wako Pure Chemical Corporation, respectively 100 units/mL, 100 μg/mL). SW48 cells were suspended in trypsin (Lonza, Walkersville, MD, USA), and 3×10^6 cells were suspended in 100 μL of PBS/Matrigel (1:1, Corning, Corning, NY, USA), and subcutaneously injected into 6-week-old male or female CB17 SCID mice (Japan Clea, Osaka, Japan) to create a subcutaneous transplantation tumor model. The compound of the present invention was dissolved in 10% ethanol (FUJIFILM Wako Pure Chemical Corporation, Japan), 10% dimethyl sulfoxide (Nacalai Tesque, Kyoto, Japan), 10% Cremophor EL (Sigma Chemical, St. Louis, MO, USA), and 70% saline (Nacalai Tesque, Kyoto, Japan), and administered intraperitoneally at a dose of 20 mg/kg every day from 4 days after transplantation. The major diameter and minor diameter were measured twice a week using calipers, and the tumor volume was calculated by 0.5× major diameter×minor diameter^2. 3.5 Weeks after cell transplantation, the tumor was removed and the weight was measured. […]

[5] = system: human colon cancer SW48 transplanted tumors; test: In vivo antitumor effect in a human colon cancer SW48 cell subcutaneous transplantation model; set-up: species or system mouse; settings: CB17 SCID mice, 20 mg/kg intraperitoneally every day from 4 days after transplantation, 3.5 weeks; FIG. 7(A),(B)
Method: as §1

[6] = system: glioblastoma transplanted tumor; test: In vivo antitumor effect in a mouse glioblastoma transplantation model (luciferase imaging); settings: C57BL6J mouse, 10 mg/kg intraperitoneally three times a week, three weeks after transplantation; FIG. 3
Method: According to the method described in a literature (Tanigawa S, et al. Cancer Gene Therapy (2021). https://doi.org/10.1038/s41417-020-00282-5), murine glioblastoma stem cells introduced with the Luciferase gene were established, and cultured as neurosphere cells in a 5% CO2 incubator at 37° C. using Neurobasal medium supplemented with B27 and N2 supplements (Gibco/Thermo Fisher Scientific, Waltham, MA, USA) and 10 ng/mL of EGF and bFGF (R&D Systems, Minneapolis, MN, USA). The neurospheres were made into a single cell suspension by Accutase (Innovative Cell Technologies, San Diego, CA, USA) treatment, and 1×10^3 cells suspended in 2 μL of PBS were transplanted into the cerebrum of a 6-week-old male C57BL6J mouse (Oriental Bioservice, Kyoto, Japan) fixed on a Stereotaxic Instrument (51730D; Stoelting Co., Wood Dale, IL, USA) using a 30-gauge Hamilton syringe with autoinjector (Legato130; KD Scientific, Holliston, MA, USA). […] Three weeks after cell transplantation, D-luciferin was administered intraperitoneally at a dose of 150 mg/kg and in vivo tumor size was evaluated using the IVIS Lumina XR imaging system (Summit Pharmaceuticals International, Tokyo, Japan).

[7] = system: human glioblastoma cell line U251; test: Proliferation of human glioblastoma U251 cells, compound alone or combined with temozolomide (viable cell count, CI/isobologram); format: cell-based; settings: temozolomide 12.5, 25, 50 μM with compound 25, 50, 100 nM, 6 days; CI < 0.9 = synergistic; FIG. 2
Method: According to the method described in a literature (Matsumura K, et al. BMC Cancer (2016) 16(1):748.), human glioblastoma cell line U251 was cultured in a 5% CO2 incubator at 37° C. using DMEM (FUJIFILM Wako Pure Chemical Corporation, Japan) supplemented with 10% bovine fetal serum (FBS, HyClone, GE Healthcare Life Sciences, Buckinghamshire, England) and 1% penicillin/streptomycin (FUJIFILM Wako Pure Chemical Corporation, respectively 100 units/mL, 100 μg/mL). Temozolomide (Sigma Chemical, St. Louis, MO, USA) which is used as a standard drug for the treatment of glioblastoma was dissolved at 200 mM using dimethyl sulfoxide (Nacalai Tesque, Kyoto, Japan) as a solvent. […] Proliferation of these cells was evaluated using Trypan blue (FUJIFILM Wako Pure Chemical Corporation, Japan) staining method and counting the number of viable cells using a Countess II automatic cell counter (Thermo Fisher Scientific, Waltham, MA). Combination index (CI) values of temozolomide and the compound of the present invention were calculated using CalcuSyn 2.11 software (Biosoft, Cambridge, UK), and Isobologram analysis was performed. The CI value of less than 0.9 was determined to be a synergistic effect, the CI value of 0.9 or more and less than 1.1 was determined to be an additive effect, and the CI value of 1.1 or more was determined to be an antagonistic effect.

phosphorylated AMPK [8] = test: Phosphorylated AMPK increasing action on human lung cancer A549 cells (Western blot, phospho-AMPKα Thr172); format: cell-based; settings: 100 nM to 1 μM, 3 days; FIG. 9
Method: Human lung cancer A549 cells were cultured in a 5% CO2 incubator at 37° C. using DMEM (FUJIFILM Wako Pure Chemical Corporation, Japan) supplemented with 10% bovine fetal serum (FBS, HyClone, GE Healthcare Life Sciences, Buckinghamshire, England) and 1% penicillin/streptomycin (FUJIFILM Wako Pure Chemical Corporation, respectively 100 units/mL, 100 μg/mL). A549 cells were suspended in trypsin (Lonza, Walkersville, MD, USA), and 1×10^5 cells were seeded in a 6-well dish (TPP, Trasadingen, Switzerland). After 24 hr, they were treated with the compound of the present invention diluted in a culture medium to final concentrations of 100 nM to 1 μM and allowed to act for 3 days. Cellular proteins were dissolved in 1% SDS buffer supplemented with a protease inhibitor cocktail mix (Nacalai Tesque, Kyoto, Japan), and SDS-PAGE was performed. After transferring to PVDF membrane (Millipore, Billerica, MA, USA), Western blot analysis was performed using anti-phospho-AMPKα (Thr172, 1:1000, #2535; CST) antibody. GAPDH protein was analyzed as a loading control.

CCCCCCCCCOCCOCCOCCOCCCCCCCCCCCCNC(=O)c1ccsc1 [I-4, N-(13,16,19,22-tetraoxahentriacontan-1-yl)thiophene-3-carboxamide]
phosphorylated AMPK in SW48 cells (phosphorylated AMPK [1]): phosphorylated AMPK increasing action | proliferation of human colon cancer SW48 cells (number of viable cells) [2]: proliferation suppressive action

CCCCCCCCCCOCCOCCOCCOCCCCCCCCCCCCNC(=O)c1ccsc1 [I-5, N-(13,16,19,22-tetraoxadotriacontan-1-yl)thiophene-3-carboxamide]
phosphorylated AMPK in SW48 cells (phosphorylated AMPK [1]): phosphorylated AMPK increasing action | proliferation of human colon cancer SW48 cells (number of viable cells) [2]: proliferation suppressive action | AMP/ATP ratio of SW48 cells [3]: has action to increase the AMP/ATP ratio | body weight change [4]: no significant body weight change | tumor volume and tumor mass of SW48 subcutaneous transplanted tumors [5]: suppresses proliferation of human colon cancer SW48 transplanted tumors | in vivo tumor size of transplanted glioblastoma [6]: suppresses proliferation of glioblastoma transplanted tumor | combination effect with temozolomide on proliferation of U251 cells (combination index, isobologram) [7]: synergistically potentiates the proliferation suppressive ability of temozolomide

COCCOCCOCCOCCCCCCCCCCCCNC(=O)c1csc(C)c1 [I-10, N-(13,16,19,22-tetraoxatricosan-1-yl)-5-methylthiophene-3-carboxamide]
phosphorylated AMPK in SW48 cells (phosphorylated AMPK [1]): phosphorylated AMPK increasing action | proliferation of human colon cancer SW48 cells (number of viable cells) [2]: proliferation suppressive action

CCCCCCCCCCOCCOCCOCCOCCOCCCCCCCCCNC(=O)c1ccsc1 [I-16, N-(10,13,16,19,22-pentaoxadotriacontan-1-yl)thiophene-3-carboxamide]
phosphorylated AMPK in A549 cells (phosphorylated AMPK [8]): phosphorylated AMPK increasing action
